Common to all, as to assay: growth of human tumour cells (NCI), 48 h
Test [1] has as its system SNB-78 CNS.
Test [2] deals with RXF-631 renal.
Test [3] has as its system DMS 273 small cell lung.
Test [4] has as its system DLD-1 colon.
In test [5] the test system is M19-MEL melanoma.
Test [6] has as its system DMS 114 small cell lung.
Test [7] has as its system MDA-MB-231 breast.
Test [8] concerns MDA-N.
Test [9] has as its system BT-549 breast.

“And” between values parts separate entries of the source, which are not always exact repeats. Equal entries are not always repeated.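 Following 48 hours of exposure in 96-well plates, responses at five concentrations were used to interpolate endpoints linearly. GI50 marks 50% less growth. TGI denotes the concentration required for complete inhibition of growth.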

As to `Nc1n[nH]c(CCc2nc(N)n[nH]2)n1`, the TGI in test [1], in test [2], in test [3], in [4], in test [5] and in [6] was more than 100 µM each time.
With `Cc1cc2c(C)n(Cc3ccc(Cl)cc3Cl)nc2c(C(=O)O)c1C`, the TGI in test [1], in [2], in [3], in [4] and in test [5] was more than 100 µM throughout.
Turning to `CCOC(=O)c1c(C)c(C)n2c1NC(=O)C2`, the TGI in test [2], in test [3], in test [7], in [4], in [8] and in test [5] was more than 100 µM in each case. Moreover, the TGI in [9] and in test [6] was more than 100 µM each time.
With `CCOC(=O)C1=C(Nc2ccc(Cl)c(Cl)c2)OC/C1=N\NS(=O)(=O)c1ccc(C)cc1`, the TGI in test [1], in test [2], in test [4], in test [5] and in [6] was more than 100 µM each time.
Consider `O=[N+]([O-])c1ccc(Cl)cc1C1SCc2nc3ccccc3n21` (stereo unspecified), for which the TGI in test [1], in test [2], in test [3], in test [4], in test [5] and in test [6] was more than 100 µM each time.
`Cc1ccccc1-n1c(C)nc(-c2ccccc2)cc1=O`: the TGI in test [1], in test [2], in test [3], in test [4], in test [5] and in test [6] was more than 100 µM each time.
As to `[Cl][Cd][Cl]`, the GI50 in test [1] was 21.3 µM; in test [2], 38.8 µM; in test [3], 15.1 µM; in [7] it was 16.5 µM; in [4] it was more than 58.6 µM; in [8], 4.61 µM and 8.24 µM. Besides, the values for the GI50 in test [5] and in test [6] were 11.2 µM and 25.8 µM, respectively. The TGI is 56.9 µM in test [1]; more than 88.9 µM in [2]; 31.2 µM in test [3]; 53.9 µM in [7]; 21.4 µM in [8]; 24.1 µM in test [5]. In addition, the TGI was 2.07 µM and 17.6 µM in [9]; more than 55 µM in [6].
On to `COc1ccc2c(c1OC)C(=O)c1cnccc1C2=O`, for which the TGI in test [1], in test [2], in test [3], in test [4], in test [5] and in test [6] was more than 100 µM in each case.
On to `O=S(=O)(C/C(=N\O)c1ccccc1)c1ccccc1`, for which the TGI in [1], in [2], in test [3], in test [4] and in [5] was more than 100 µM in each case.
On to `CN(C)C(=S)/N=c1\ss/c(=N\S(=O)(=O)c2ccccc2)n1N(C)C`, for which the TGI in [1] was more than 100 µM; in test [2], more than 100 µM; in test [3], more than 100 µM; in test [4] it was more than 100 µM; in test [5] it was more than 100 µM; in [6] it was 85.9 µM.
`O=C(NO)c1ccc(O)c(O)c1`: the TGI in test [1] was more than 100 µM; in test [2] it was more than 100 µM; in test [3] it was 77.8 µM; in test [4], more than 100 µM; in [5] it was more than 100 µM; in test [6], more than 100 µM.
In the case of `O=C1NC(=O)C2C1N(Cc1ccccc1)C(=O)N2Cc1ccccc1` (stereo unspecified), the TGI in test [1], in test [2], in [4], in test [5] and in test [6] was more than 100 µM in each case.
As to `CCC(Oc1ccc(OC)c2ccccc(=O)c12)C(=O)O` (stereo unspecified), the TGI in [1], in [2], in test [3], in test [5] and in test [6] was more than 100 µM throughout.
As to `COC1=C2CC(C)CC(OC)C(O)C(C)/C=C(\C)C(OC(N)=O)C(OC)/C=C\C=C(/C)C(=O)NC(=C(/C=N/N3CCCCC3)C1=O)C2=O` (stereo unspecified), the TGI in test [1] was 48.3 µM; in test [2], 35.1 µM; in [3] it was 27.6 µM; in test [4], 23.4 µM; in [5] it was 19 µM.
In the case of `CC1=CC(=O)N(c2c(C)cccc2Cl)C(C)N1` (stereo unspecified), the TGI in test [1], in [2], in test [3], in test [4], in test [5] and in test [6] was more than 100 µM in each case.
`CC(=O)Oc1ccc(C(c2ccc(OC(C)=O)cc2)c2ccccn2)cc1`: the TGI in test [2], in test [3], in test [7], in [4], in test [8] and in [5] was more than 100 µM in each case. The TGI in test [6] was more than 68.4 µM. Also, the GI50 was 48 µM in test [7] and 0.313 µM in [9].
For `O=C(O)CCSC(=O)Nc1ccc(N=Nc2ccccc2)cc1`, the TGI in test [1], in [2], in test [3], in [4] and in test [6] was more than 100 µM each time.
`CN1CC(=O)N(C)c2nc[nH]c2C1=O`: the TGI in test [1], in test [2], in test [3], in test [4], in test [5] and in [6] was more than 100 µM in each case.

Values taken from PubChem BioAssay (NCI).
